Columns and labels:
prions = conditions: reported in literature; cited from earlier work
[1] = target: Scrapie (sheep) prion protein (Ovis aries, UniProt P23907)
Chain of Scrapie (sheep) prion protein (P23907 25-233 limits assumed): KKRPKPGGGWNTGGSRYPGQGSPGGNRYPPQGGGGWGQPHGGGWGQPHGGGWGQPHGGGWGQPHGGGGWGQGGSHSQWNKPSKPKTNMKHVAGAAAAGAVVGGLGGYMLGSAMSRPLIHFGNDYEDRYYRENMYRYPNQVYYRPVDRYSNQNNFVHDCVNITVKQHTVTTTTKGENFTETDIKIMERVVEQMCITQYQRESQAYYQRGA

SMILES: OO [hydrogen peroxide]
- effectiveness against prions (prions): ineffective

SMILES: OO [7% Hydrogen Peroxide, hydrogen peroxide]
- effect on the percentage of samples showing presence of prion ([1]; in the period of the test (one hour soak)): no effect
- Percentage of Samples Tested where Prion (Scrapie) is Detected ([1]; wires soaked for one hour): 100%

SMILES: C1CO1 [ethylene oxide]
- effectiveness against prions (prions): ineffective

SMILES: O=CCCCC=O [Glutaraldehyde]
- effectiveness against prions (prions): ineffective

Source: patent publication US7393818B2 (priority 2003, dated 2008)
